Assay results from ChEMBL document CHEMBL1201862, “PubChem BioAssay data set” (2004).
Calls of active or inactive are those of the source. Rule as the data show it, for most assays here: actives have a measured EC50 and inactives only a lower limit.

What was measured:
[1] = Luminescence Cell-Based Dose Response HTS to Identify Inhibitors of 5'UTR Stem-Loop Driven Prion Protein mRNA Translation in H4 Neuroglioblastoma Cells. [Related pubchem assays: 1827 (Project Summary), 1813 (Primary HTS)]; type: functional
[2] = inhibitors of SNCA 5'UTR-driven reporter translation, confirmation, H4 neuroglioma cells, luminescence (AID 1988); type: functional, cell-based
[3] = inhibitors of firefly luciferase expression or activity, dose response, H4 neuroglioma cells, luminescence (AID 1990); type: functional, cell-based
Streptococcus = assay: Group A Streptococcus viability loss, dose response, counter-screen for streptokinase expression inhibitor project, luminescence, BacTiterGlo (AID 1915); type: functional, organism-based;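 also: potency for reduction of bacterial viability or growth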
INS1 = assay: beta cell apoptosis inhibitors, cytokine rescue, dose response, luminescence, retest (AID 449756); type: functional, cell-based; settings: Rattus norvegicus;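 also: cell death triggered by IL-1 beta plus TNF-alpha plus IFN-gamma mixture; protective hits raise ATP signal compared with cytokine alone wells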
Streptokinase A = molecular target: T1, Streptokinase A (Streptococcus pyogenes serotype M1, UniProt P10520); assay: S. pyogenes streptokinase expression inhibitors, potency, dose response, plasminogen activation absorbance, OD405 (AID 1914); type: functional, Streptococcus pyogenes M1 GAS;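 also: secreted streptokinase activity via plasminogen activation per viability signal from cell pellet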
T1 sequence (P10520 whole entry): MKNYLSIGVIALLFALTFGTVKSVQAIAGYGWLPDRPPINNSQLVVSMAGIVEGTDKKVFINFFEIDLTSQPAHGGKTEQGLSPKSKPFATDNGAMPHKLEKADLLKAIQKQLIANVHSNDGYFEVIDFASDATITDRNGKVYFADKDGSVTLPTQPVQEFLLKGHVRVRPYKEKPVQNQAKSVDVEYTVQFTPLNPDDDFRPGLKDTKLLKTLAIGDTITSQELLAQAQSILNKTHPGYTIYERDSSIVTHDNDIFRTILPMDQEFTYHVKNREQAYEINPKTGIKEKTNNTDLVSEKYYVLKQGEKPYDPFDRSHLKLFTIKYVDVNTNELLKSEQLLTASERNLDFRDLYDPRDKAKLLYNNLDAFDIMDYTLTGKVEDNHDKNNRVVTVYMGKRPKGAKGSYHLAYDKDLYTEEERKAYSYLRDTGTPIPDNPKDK

[4] = system: Streptococcus sp. 'group A'; assay: growth inhibition of control SK(-) GAS strain, dose response, counter-screen for streptokinase expression inhibitor project, luminescence, kanamycin, BacTiterGlo, confirmation (AID 1900); type: functional, organism-based
Cytochrome P450 1A2 = molecular target: T2, Cytochrome P450 1A2 (Homo sapiens, UniProt P05177);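 also: PubChem cytochrome P450 panel assay, CYP1A2 panel member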
T2 sequence (P05177 whole entry): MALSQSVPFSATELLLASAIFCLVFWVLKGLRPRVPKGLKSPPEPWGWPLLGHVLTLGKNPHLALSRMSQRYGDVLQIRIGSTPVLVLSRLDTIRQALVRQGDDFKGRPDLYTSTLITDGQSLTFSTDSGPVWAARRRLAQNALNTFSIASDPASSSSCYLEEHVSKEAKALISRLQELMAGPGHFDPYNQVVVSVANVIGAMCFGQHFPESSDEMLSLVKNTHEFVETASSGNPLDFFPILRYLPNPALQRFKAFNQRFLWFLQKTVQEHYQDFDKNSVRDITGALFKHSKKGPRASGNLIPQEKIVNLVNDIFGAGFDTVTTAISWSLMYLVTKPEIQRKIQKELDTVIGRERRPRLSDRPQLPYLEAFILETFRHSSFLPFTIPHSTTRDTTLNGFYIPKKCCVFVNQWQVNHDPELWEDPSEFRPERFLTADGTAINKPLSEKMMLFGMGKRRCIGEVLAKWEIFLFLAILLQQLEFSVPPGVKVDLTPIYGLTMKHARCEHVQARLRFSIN

[5] = Luminescence Cell-Based Dose Retest to Confirm Inhibitors of Cancer Stem Cells. [Related pubchem assays (depositor defined):AID2717, AID2721]; type: functional; settings: Homo sapiens
[6] = inhibitors of intracellular T. cruzi replication, confirmation, NIH3T3 host cells, beta-gal luminescence (AID 2044); type: functional, cell-based;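 also: intracellular parasites grown in NIH/3T3 mouse fibroblasts as host cells; luminescent beta-galactosidase reporter signal from transgenic T. cruzi replicating inside host cells; inhibitors lower the luminescence signal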
[7] = cytotoxicity toward NIH3T3 fibroblasts, dose response, counter-screen, cell-based, ATP luminescence, mouse fibroblasts (AID 2010); type: functional;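 also: cells exposed to compound for about 90 hours before reading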
Cytochrome P450 2D6 = Cytochrome P450 2D6 (Homo sapiens, UniProt P10635);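 also: CYP2D6 member of a cytochrome P450 panel assay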
Cytochrome P450 3A4 = Cytochrome P450 3A4 (Homo sapiens, UniProt P08684);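 also: CYP3A4 tested as one member of a cytochrome P450 panel screen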
[8] = molecular target: T3, Heat shock factor protein 1 (Mus musculus, UniProt P38532); assay: inhibition of MG132-induced HSE-luciferase signal, confirmation, cell-based, NIH3T3, luminescence, dose retest (AID 2382); type: functional;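 also: NIH3T3 fibroblasts with HSF1-driven luciferase reporter stressed by proteasome inhibitor MG132; luminescence from HSF1-driven luciferase expression after 8 hours of MG132 stress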
T3 sequence (P38532 whole entry): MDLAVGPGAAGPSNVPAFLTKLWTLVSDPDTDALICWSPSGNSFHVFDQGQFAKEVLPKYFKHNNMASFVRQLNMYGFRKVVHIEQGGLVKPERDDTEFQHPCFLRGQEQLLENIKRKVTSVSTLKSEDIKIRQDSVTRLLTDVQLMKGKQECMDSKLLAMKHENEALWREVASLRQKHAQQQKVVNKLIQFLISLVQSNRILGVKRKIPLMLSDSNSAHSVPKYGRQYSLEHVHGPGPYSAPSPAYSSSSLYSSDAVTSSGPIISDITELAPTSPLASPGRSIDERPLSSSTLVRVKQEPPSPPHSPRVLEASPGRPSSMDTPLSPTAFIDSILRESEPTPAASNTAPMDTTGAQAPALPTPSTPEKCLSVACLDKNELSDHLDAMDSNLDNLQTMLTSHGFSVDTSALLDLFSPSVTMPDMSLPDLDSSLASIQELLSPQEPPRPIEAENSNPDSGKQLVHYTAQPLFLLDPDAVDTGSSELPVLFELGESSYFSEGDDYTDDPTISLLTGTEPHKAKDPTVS

Cytochrome P450 2D6, sequence (P10635 whole entry): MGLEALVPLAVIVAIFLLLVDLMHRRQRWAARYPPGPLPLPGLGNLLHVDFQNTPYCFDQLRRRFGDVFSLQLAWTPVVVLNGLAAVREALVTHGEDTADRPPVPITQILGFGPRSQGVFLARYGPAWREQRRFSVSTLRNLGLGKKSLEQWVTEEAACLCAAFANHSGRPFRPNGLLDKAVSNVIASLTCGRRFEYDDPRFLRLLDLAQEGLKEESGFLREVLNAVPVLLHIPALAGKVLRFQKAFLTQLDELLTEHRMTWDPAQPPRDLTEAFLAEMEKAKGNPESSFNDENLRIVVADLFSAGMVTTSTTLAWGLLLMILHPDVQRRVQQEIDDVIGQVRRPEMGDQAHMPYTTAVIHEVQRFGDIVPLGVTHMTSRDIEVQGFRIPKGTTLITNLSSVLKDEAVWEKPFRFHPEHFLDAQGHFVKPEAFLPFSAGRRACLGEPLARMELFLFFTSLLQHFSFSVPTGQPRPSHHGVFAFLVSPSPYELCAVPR
Cytochrome P450 3A4, sequence (P08684 whole entry): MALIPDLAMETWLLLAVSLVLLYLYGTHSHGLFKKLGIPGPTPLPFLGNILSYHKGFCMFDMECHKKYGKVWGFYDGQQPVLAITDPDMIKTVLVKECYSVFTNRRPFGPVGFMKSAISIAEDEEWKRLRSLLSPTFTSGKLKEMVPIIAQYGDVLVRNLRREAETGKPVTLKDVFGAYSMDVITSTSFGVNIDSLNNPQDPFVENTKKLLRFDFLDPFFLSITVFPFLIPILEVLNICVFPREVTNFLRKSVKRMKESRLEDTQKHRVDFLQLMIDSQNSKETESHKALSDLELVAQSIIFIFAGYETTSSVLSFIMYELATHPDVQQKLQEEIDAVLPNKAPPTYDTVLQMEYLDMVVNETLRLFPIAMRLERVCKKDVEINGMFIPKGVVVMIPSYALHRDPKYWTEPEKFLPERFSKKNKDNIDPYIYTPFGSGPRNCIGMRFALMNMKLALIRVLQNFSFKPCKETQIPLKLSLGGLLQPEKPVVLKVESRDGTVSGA

Which EC50 [1] does the source give for `CC/C(NCc1cc(OC)cc(OC)c1)=C1/C(=O)NC(=O)N(C2CCCCC2)C1=O` here?
The EC50 was > 120 µM (not active).

And the EC50 [2]?
Its EC50 is 27.2 µM (active).

What about the EC50 [3] of the same compound?
Its EC50 is 16 µM (active).

For `NS(=O)(=O)c1ccc(N/N=C2/CCCCC2C2CCCCC2)c([N+](=O)[O-])c1` (stereo not drawn), which EC50 (Streptococcus) is on record?
The EC50 was 7.18 µM (active).

What about the AC50 (INS1) of the same compound?
The AC50 was 7.29 µM (active).

And the EC50 (Streptokinase A)?
The EC50 was 7.92 µM (inconclusive).

What about the EC50 [4] of the same compound?
The EC50 was 3.34 µM (active).

Which results are given for `O=C(NC1CCCCC1)C1CCN(C(=O)c2ccc(-c3ccccc3)cc2)CC1`?
EC50 [1]: > 120 µM (not active); EC50 [2]: 77.5 µM (active); EC50 [3]: > 120 µM (not active)

Which AC50 (Cytochrome P450 1A2) does the source give for `CCNc1ncc2nc(CCc3ccccc3)c(=O)n(Cc3cccc(OC)c3)c2n1` here?
Its AC50 is 12.6 µM (inconclusive).

For `CC(C)CNc1nc(N)c([N+](=O)[O-])c(NCC2CCCO2)n1` (stereo not drawn), which EC50 [1] is on record?
The EC50 was 4.6 µM (active).

What about the EC50 [2] of the same compound?
The EC50 was > 120 µM (not active).

And the EC50 [3]?
The EC50 was 13.5 µM (active).

Which AC50 [5] does the source give for `COc1cccc(C(=O)/C=C/c2ccc(N3CCCCC3)c([N+](=O)[O-])c2)c1` here?
Its AC50 is 7.86 µM (active).

For `CCC(c1nnnn1CCc1ccccc1)N(Cc1ccco1)Cc1cc2c(C)ccc(C)c2nc1O` (stereo not drawn), which EC50 [6] is on record?
Its EC50 is 1.41 µM (active).

What about the EC50 [1] of the same compound?
Its EC50 is > 120 µM (not active).

What about the EC50 [2] of the same compound?
The EC50 was > 120 µM (not active).

And the EC50 [7]?
Its EC50 is > 60 µM (not active).

What about the EC50 [3] of the same compound?
The EC50 was > 120 µM (not active).

Which AC50 (Cytochrome P450 2D6) does the source give for `COC(=O)c1ccc(CSc2nc3cc(Cl)ccc3s2)o1` here?
Its AC50 is 20 µM (inconclusive).

And the AC50 (Cytochrome P450 3A4)?
The AC50 was 25.1 µM (inconclusive).

With `CCCCC(=O)Nc1ccc(C(=O)NCCc2ccc(S(N)(=O)=O)cc2)cc1` as the compound, how does the EC50 [8] read?
The EC50 was > 195 µM (not active).

For `CC1CC(C)CN(C(=O)c2ccc(CSc3nc4cc[nH]cc-4n3)cc2)C1` (stereo not drawn), which EC50 [8] is on record?
The EC50 was > 195 µM (not active).

For `CC(=O)c1cccc(NC(=O)CSc2ccc(-c3ccccn3)nn2)c1`, which EC50 [1] is on record?
Its EC50 is 14.6 µM (active).

And the EC50 [2]?
Its EC50 is > 120 µM (not active).

And the EC50 [3]?
Its EC50 is > 120 µM (not active).

For `CN1CCN(C(=O)O[C@@H]2c3nccnc3C(=O)N2c2ccc(Cl)cn2)CC1`, which AC50 (Cytochrome P450 1A2) is on record?
Its AC50 is 39.8 µM (inconclusive).

Which AC50 (Cytochrome P450 2D6) does the source give for `COc1ccccc1N1CCN(Cc2cc(=O)n3ccsc3n2)CC1` here?
The AC50 was 22.4 µM (inconclusive).

With `CCOC(=O)N/N=C\c1ccc(C)s1` as the compound, how does the EC50 [8] read?
Its EC50 is > 195 µM (not active).

Which results are given for `COC(=O)N1CCC2(CCCN(Cc3nccs3)C2)CC1`?
AC50 (Cytochrome P450 2D6): 12.6 µM (inconclusive); AC50 (Cytochrome P450 3A4): 15.8 µM (inconclusive)

For `CC1(C)CC(=O)C(C(c2cccnc2)C2C(=O)CC(C)(C)CC2=O)C(=O)C1`, which EC50 [8] is on record?
Its EC50 is > 195 µM (not active).

For `CCOC(=O)CCCNS(=O)(=O)c1c(C)ccc2nsnc12`, which EC50 [8] is on record?
Its EC50 is 53.4 µM (active).

Which AC50 (Cytochrome P450 1A2) does the source give for `CC(=O)N1CCN(C)CC1` here?
Its AC50 is 31.6 µM (inconclusive).

For `CCOC(=O)c1cc(CC)sc1NC(=O)CSc1nc2ccccc2c(=O)n1Cc1ccco1`, which EC50 [1] is on record?
The EC50 was > 120 µM (not active).

And the EC50 [2]?
The EC50 was 17.8 µM (active).

What about the EC50 [3] of the same compound?
Its EC50 is > 120 µM (not active).

For `COC(=O)[C@H](CC(C)C)N(Cc1ccccc1)S(=O)(=O)N(Cc1ccc(OC)cc1)[C@@H](CC(C)C)C(=O)OC`, which AC50 (INS1) is on record?
The AC50 was 5.77 µM (active).

For `NC(=S)N/N=C/c1cc([N+](=O)[O-])ccc1OCCOc1ccccc1`, which EC50 [8] is on record?
The EC50 was 52.6 µM (active).

With `O=C1N=C(N2CCCC2)S/C1=C\C=C\c1ccccc1` as the compound, how does the EC50 [8] read?
Its EC50 is < 0.16 µM (active).

With `CCOC(=O)c1ncn2c1CN(C)C(=O)c1cc(F)ccc1-2` [FLUMAZENIL] as the compound, how does the AC50 (Cytochrome P450 1A2) read?
Its AC50 is 39.8 µM (inconclusive).

With `Cc1cccc(N2CC(=O)C(c3nc4ccccc4n3C)=C2N)c1` as the compound, how does the AC50 (Cytochrome P450 1A2) read?
The AC50 was 14.1 µM (inconclusive).
